US20130156825A1, “Modafinil Formulations” (CEPHALON, INC., priority 2002, published 2013)

Columns and labels:
[1] = PSD of modafinil particles, Malvern laser technique; assay type: physicochemical
Method: (§1) Modafinil PSD was measured in '517 U.S. patent by using a Hiac/Royco machine. This machine uses a light obscuration technique for the PSD measurement. We repeated the measurements of the PSD on a Hiac/Royco machine and compared it with a different laser beam obscuration technique offered by the commonly used Malvern machine. Both methods use light obscuration as means to evaluate the PSD, but they work on different principles. The results confirmed the validity of our PSD measurements. Both methods gave similar values. Both methods also gave PSD results that are far away from the scope of the values claimed by the '517 U.S. Patent. The following table summarizes the data. Values are reported in microns. The term D(v,0.5) denotes the diameter of the largest particle found in 50% of the particles sorted in increasing order. The other two terms refer to 85% and 95% of the particles. The terms mean, median and mode are used in their regular statistical meaning.

[2] = PSD of modafinil used to prepare the modafinil tablets; assay type: physicochemical; conditions: modafinil used for 200 mg tablets, method not stated
Method: Tablets containing 200 mg of modafinil having PSD as provided in table 2 below (values are in microns) were prepared: […]

[3] = PSD of modafinil particles, Hiac/Royco light obscuration; assay type: physicochemical; conditions: Hiac
Method: as §1

[4] = '517 U.S. Patent; cited from earlier work

NC(=O)C[S+]([O-])C(c1ccccc1)c1ccccc1 (centres unmarked) [Batch A, 2-[(diphenylmethyl)sulfinyl]acetamide]
D(v, 0.5) ([1]; listed as A): 107 microns | D(v, 0.85) ([1]; listed as A): 235 microns | D(v, 0.95) ([1]; listed as A): 318 microns | Median particle size ([1]; listed as A): 107 microns | D(v, 0.5) ([2]; listed as A): 107 microns | D(v, 0.85) ([2]; listed as A): 235 microns | D(v, 0.95) ([2]; listed as A): 318 microns | Median ([2]; listed as A): 107 microns | D(v, 0.5) ([3]; listed as A): 133 microns | D(v, 0.85) ([3]; listed as A): 229 microns | D(v, 0.95) ([3]; listed as A): 282 microns | Mean particle size ([3]; listed as A): 51 microns | Median particle size ([3]; listed as A): 134 microns | mode particle size ([3]; listed as A): 196 microns

NC(=O)C[S+]([O-])C(c1ccccc1)c1ccccc1 (centres unmarked) [Batch B, 2-[(diphenylmethyl)sulfinyl]acetamide]
D(v, 0.5) ([1]; listed as B): 85 microns | D(v, 0.85) ([1]; listed as B): 215 microns | D(v, 0.95) ([1]; listed as B): 293 microns | Median particle size ([1]; listed as B): 85 microns | D(v, 0.5) ([2]; listed as B): 85 microns | D(v, 0.85) ([2]; listed as B): 215 microns | D(v, 0.95) ([2]; listed as B): 293 microns | Median ([2]; listed as B): 85 microns | D(v, 0.5) ([3]; listed as B): 103 microns | D(v, 0.85) ([3]; listed as B): 194 microns | D(v, 0.95) ([3]; listed as B): 265 microns | Mean particle size ([3]; listed as B): 40 microns | Median particle size ([3]; listed as B): 104 microns | mode particle size ([3]; listed as B): 148 microns

NC(=O)C[S+]([O-])C(c1ccccc1)c1ccccc1 (centres unmarked) [Batch C, 2-[(diphenylmethyl)sulfinyl]acetamide]
D(v, 0.5) ([1]; listed as C): 128 microns | D(v, 0.85) ([1]; listed as C): 228 microns | D(v, 0.95) ([1]; listed as C): 303 microns | Median particle size ([1]; listed as C): 128 microns | D(v, 0.5) ([2]; listed as C): 128 microns | D(v, 0.85) ([2]; listed as C): 228 microns | D(v, 0.95) ([2]; listed as C): 303 microns | Median ([2]; listed as C): 128 microns | D(v, 0.5) ([3]; listed as C): 148 microns | D(v, 0.85) ([3]; listed as C): 231 microns | D(v, 0.95) ([3]; listed as C): 277 microns | Mean particle size ([3]; listed as C): 51 microns | Median particle size ([3]; listed as C): 148 microns | mode particle size ([3]; listed as C): 193 microns

NC(=O)C[S+]([O-])C(c1ccccc1)c1ccccc1 (centres unmarked) [Batch D, 2-[(diphenylmethyl)sulfinyl]acetamide]
D(v, 0.5) ([2]; listed as D): 95 microns | D(v, 0.85) ([2]; listed as D): 217 microns | D(v, 0.95) ([2]; listed as D): 297 microns | Median ([2]; listed as D): 95 microns

NC(=O)C[S+]([O-])C(c1ccccc1)c1ccccc1 (centres unmarked) [“early” batches]
median value of modafinil particles [4]: 94-143 μ | size below which 95% of the particles lie [4]: 220-280 μ

NC(=O)C[S+]([O-])C(c1ccccc1)c1ccccc1 (centres unmarked) [“late” batches]
median value of modafinil particles [4]: 31-50 μ | size below which 95% of the particles lie [4]: 110-150 μ
